Where a SMILES comes first, the peptide text is derived from it. Bridges are numbered along the chain shown (N, C = ends). [ ]: non-standard residue; d: D form. The star is where a group is joined. 5FAM = O=C1OC2(c3ccc(O)cc3Oc3cc(O)ccc32)c2ccc(C(=O)*)cc21; S5 = C=CCCC[C@](C)(N)C(=O)O; βAla = NCCC(=O)O
Tests used:
[1] = Circular dichroism spectroscopy, percent helicity; type: physicochemical; conditions: 50 μM peptide, 10 mM phosphate buffer pH 7.2, 0.5% DMSO, 20 °C
Experimental: To determine the secondary structure of peptides 1–11, CD was measured in an aqueous solution. […] The molar ellipticity ([θ]) at 222 nm was used to estimate the percent helicity of peptides in aqueous solutions and enable direct comparison of the helical content of peptides 1–11 (Figure 5C).[51],[52]
CD measurements were acquired on an Olis DSM17 CD spectrophotometer. Cells with a path length of 2 mm were used. Peptide solutions at 50 μM were prepared in 10 mM phosphate buffer (500 μL; pH = 7.2) containing 0.5% of DMSO, and exact concentrations were determined using fluorescein absorbance at 494 nm and a molar extinction coefficient of 82,000 cm^–1 M^–1.[59] Blank solutions of buffer without peptide were prepared for background subtraction. Scans were performed at 20 °C from 200 to 260 nm with increments of 1 nm, bandwidth of 2 nm, and a 5 s integration time. […] Helical content for peptides was calculated using a previously described method[52] that assumes that the peptide population only exists in two states, helical and random coil, and that the ellipticity contribution from the random coil population is negligible at 222 nm. […] This was calculated via the equation [θobs]222 = 43,000(1 – [x/n]), where x is the factor accounting for end effects, for which 2.5 was used, and n is the number of residues.[52]

[2] = target: T1, GST-E6 (GST-tagged HPV16 E6 protein) (Human papillomavirus type 16, UniProt P03126); experiment: Noncompetitive fluorescence polarization (FP) binding assay; design: species or system Human Papillomavirus (HPV-16)
T1 construct: host or cells: E. coli BL21
Experimental: An N-terminal carboxyfluorescein was included for FP analysis of binding affinity for both the natural backbone and the stapled peptides.
For noncompetitive FP experiments, varying concentrations of GST-E6 protein (38 μM; 10 point 2-fold serial dilution) were incubated with 30 nM fluorescently labeled peptides in buffer (10 μL total volume; 50 mM Tris, 200 mM NaCl, 1 mM DTT, 0.1% [v/v] Trition X-100) in black 384-well plates. For competitive FP experiments, 100 nM GST-E6 was incubated with 30 nM fluorescently labeled noncovalent peptide and varying concentrations (20 μM; 3-fold serial dilution) of covalent peptide in buffer (20 μL) with a final DMSO content of 0.5% [v/v]. Negative control (polarization reference; 30 nM fluorescent peptide, no protein) and blank reference (buffer alone) were included in triplicate for G-factor calibration. Sample plates were centrifuged (1 min, 500g) and incubated for 30 min at RT. Following incubation, FP at equilibrium was measured on a Tecan M1000 microplate reader (ex = 470 nm, em = 525; gain optimized, 200 flashes, 300 ms settle time, G-factor reference value 30 mP). Measured polarizations were fitted to a sigmoidal dose–response curve using GraphPad Prism software to generate KD values.

bovine α-chymotrypsin = bovine α-chymotrypsin (Bos taurus, UniProt P00766); experiment: in vitro; conditions: 50 μM peptide, 50 nM bovine α-chymotrypsin, pH 7.5, room temp, 4 h; HPLC
Experimental: (§1) Chymotrypsin was chosen due to its substrate selectivity for peptides containing hydrophobic side chains, including leucine, making the LxxLL motif a well-suited substrate for proteolytic cleavage by this protease.[54]
(§2) For each time point, a 50 μL aliquot was removed from the reaction mixture and quenched with 40 μL of 0.5% [v/v] trifluoroacetic acid in acetonitrile. Quenched samples were subsequently analyzed by analytical reverse-phase HPLC, and the remaining undigested peptide was quantified by integration of AUC. A plot of percent peptide remaining vs time was fit to a one-phase exponential decay to calculate half-life using GraphPad Prism software.

in vitro = conditions: bovine α-chymotrypsin (50 nM), pH 7.5
Experimental: as §1, §2

T1 sequence (P03126 whole entry): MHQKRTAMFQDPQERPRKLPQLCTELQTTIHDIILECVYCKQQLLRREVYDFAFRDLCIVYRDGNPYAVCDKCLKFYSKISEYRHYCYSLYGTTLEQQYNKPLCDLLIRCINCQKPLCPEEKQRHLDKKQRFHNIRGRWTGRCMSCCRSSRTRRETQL

Row | Compound | Percent helicity from molar ellipticity at 222 nm (CD) [1] | Kd [2] | EC50 [2] | degradation by chymotrypsin within 4 h (bovine α-chymotrypsin) | half-life at 50 μM (in vitro)
1 | CC(C)C[C@H](NC(=O)[C@H](CC(C)C)NC(=O)[C@H](CCC(=O)O)NC(=O)[C@]1(C)CCCC=CCCC[C@](C)(NC(=O)[C@H](C)NC(=O)[C@H](C)NC(=O)[C@H](C)NC(=O)CCNC(=O)c2ccc3c(c2)C(=O)OC32c3ccc(O)cc3Oc3cc(O)ccc32)C(=O)N[C@@H](CC(C)C)C(=O)N[C@@H]([C@@H](C)O)C(=O)N[C@@H](CC(C)C)C(=O)N1)C(=O)NCC(N)=O [compound 6] ({5FAM-βAla}-AAA[S5]LTL[S5]ELLG-NH2; staple 4-8) | 22% | ≥ 38000 nM | – | – | –
2 | CC(C)C[C@H](NC(=O)[C@H](CC(C)C)NC(=O)[C@H](CCC(=O)O)NC(=O)[C@H](CCC(N)=O)NC(=O)[C@H](CC(C)C)NC(=O)[C@@H](NC(=O)[C@H](CC(C)C)NC(=O)[C@H](CCC(=O)O)NC(=O)[C@H](C)NC(=O)[C@H](C)NC(=O)[C@H](C)NC(=O)CCNC(=O)c1ccc2c(c1)C(=O)OC21c2ccc(O)cc2Oc2cc(O)ccc21)[C@@H](C)O)C(=O)NCC(N)=O [compound 1] ({5FAM-βAla}-AAAELTLQELLG-NH2) | – | 2590 nM | 2590 nM | complete degradation | 47 min
